Results reported in US6653478B2, “Substituted benzimidazol-2-ones as vasopressin receptor antagonists and neuropeptide Y modulators” (Ortho-McNeil Pharmaceutical, Inc., priority 2000, dated 2003).
Where a name gives a salt, the structure may show the parent alone.

Columns and labels:
human V1a receptor = human V1a receptor (Homo sapiens, UniProt P37288); experiment: V1a functional assay, intracellular calcium mobilization in transfected HEK-293 cells (FLIPR); parameters: expressed in transfected cells; host or cells: HEK-293; details: challenge 1 nM AVP; read-out: Cell-Based Functional activity V1a IC50
Sequence of human V1a receptor (P37288 whole entry): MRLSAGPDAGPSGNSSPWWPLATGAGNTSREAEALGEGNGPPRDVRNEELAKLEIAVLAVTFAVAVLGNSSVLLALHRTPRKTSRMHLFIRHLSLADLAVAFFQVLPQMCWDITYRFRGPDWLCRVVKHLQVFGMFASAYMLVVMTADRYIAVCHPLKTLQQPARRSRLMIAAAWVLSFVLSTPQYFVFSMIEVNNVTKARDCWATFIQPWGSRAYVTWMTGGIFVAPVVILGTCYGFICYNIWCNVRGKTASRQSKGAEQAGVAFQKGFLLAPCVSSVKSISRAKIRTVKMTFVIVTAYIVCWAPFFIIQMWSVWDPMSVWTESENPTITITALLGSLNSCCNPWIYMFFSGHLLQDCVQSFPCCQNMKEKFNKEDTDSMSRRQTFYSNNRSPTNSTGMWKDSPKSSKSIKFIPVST
Protocol: (§1) V1a, V1b or V2 Functional Assay
(§2) HEK-293 cells were grown in DMEM media supplemented with 10% FBS and glutamine (Gibco BRL, Grand Island, N.Y.). Once transfected the cells were passed biweekly by trypsinization and seeded into 96 well plates at 33,000 cells per well. HEK-293 were transfected with human V1a, V1b or V2 DNA using DMRIE-C reagent from Life Technologies, Inc., Grand Island, N.Y. Cells were tested for their responsiveness to vasopressin 48 hours after transfection. Stable lines were generated by selecting cells grown in culture media containing geneticin (500 μg/ml, Life Technologies).
Intracellular calcium mobilization was measured in HEK-293 cells transfected to express either human V1a, oxytocin or V1b receptors. Cells were plated into black 96-well Packard Clear-View plates 4 to 7 days prior to use. The cells were loaded with fluo-3 AM (Molecular Probes, Inc., Eugene, Oreg.) in buffer (25 mM Hepes, 125 mM NaCl, 1 gm/l glucose, 0.1% BSA, 5 mM KCl, 0.5 mM CaCl2, 0.5 mM MgCl2, pH 7.45) containing Pluronic (Molecular Probes) Cells were incubated with 5 μM fluo-3 AM for 1 hour shielded from light at room temperature. Intracellular fluorescence was measured using FLIPR (fluorometric imaging plate reader; Molecular Devices, Inc., Sunnyvale, Calif.). The FLIPR protocol called for images to be collected at one second intervals with 50 μl of the test compound added after the initial 10 images. An additional 70 images were then taken to detect any compound agonistic activity. FLIPR then added 50 μl of agonist peptide and collected a final 40 images for quantitating compound antagonistic activity. V1a- and V1b-expressing HEK cells were challenged with 1 nM and 0.5 nM AVP, respectively. Oxytocin-expressing HEK cells were challenged with 0.5 nM oxytocin (Peninsula Labs).
(§3) The data from the cAMP accumulation and the calcium mobilization assays are expressed as IC50 values as determined from dose response curves.

human V2 receptor [1] = molecular target: T1, human V2 receptor (Homo sapiens, UniProt P30518); experiment: V2 functional assay, cAMP accumulation in transfected HEK-293 cells; format: cell-based; parameters: expressed in transfected cells; host or cells: HEK-293; details: for IC50: AVP 1 nM, read-out: Cell-Based Functional activity V2 IC50
Protocol: as §1, §2
The accumulation of cAMP was measured in transfected HEK-293 expressing the human V2 receptor. The cells were cultured 4-7 days in 96-well plates. On the day of assay, cells were washed twice in assay media (DMEM/F12 containing 0.1% BSA). The cells were treated with the test compound for 5 minutes and then given AVP (1 nM) in assay media containing 1 mM isobutylmethylxanthine. After 5 minutes, 0.5 N HCl was added to disrupt the cells and solubilize cAMP. The cAMP content of 20 μl of the cell lysate in each well was measured using cAMP Flashplates (NEN Life Sciences). Data are expressed as pmol cAMP/well. While the assay is optimized to detect and quantitate antagonistic activity, agonistic activity would also be apparent at the higher concentrations of test compounds.
as §3

human V1b receptor = molecular target: T2, human V1b receptor (Homo sapiens, UniProt P47901); experiment: V1b binding assay (3H-AVP displacement, HEK-293 membranes); parameters: expressed in transfected cells; host or cells: HEK-293 (membranes); details: for inhibition at 10 µM: read-out: V1b % Inh @10
T2 sequence (P47901 1-424): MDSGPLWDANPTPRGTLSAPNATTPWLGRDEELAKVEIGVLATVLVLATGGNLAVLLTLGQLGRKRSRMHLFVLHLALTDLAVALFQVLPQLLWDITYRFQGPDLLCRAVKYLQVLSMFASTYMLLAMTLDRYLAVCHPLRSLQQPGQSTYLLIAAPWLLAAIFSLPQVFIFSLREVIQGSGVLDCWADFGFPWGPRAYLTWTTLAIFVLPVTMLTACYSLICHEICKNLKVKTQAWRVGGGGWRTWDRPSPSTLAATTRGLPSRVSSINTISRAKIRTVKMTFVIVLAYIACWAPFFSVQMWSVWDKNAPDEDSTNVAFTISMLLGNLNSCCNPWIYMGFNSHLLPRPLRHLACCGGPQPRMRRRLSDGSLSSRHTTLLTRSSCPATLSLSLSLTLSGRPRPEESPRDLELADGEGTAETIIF
Outline: (§4)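 Membranes from transfected HEK-293 cells incubated 1 h at room temperature with ³H-AVP (10,000 cpm) in 50 mM Tris, 5 mM MgCl2, 0.1% BSA, pH 7.5 plus protease inhibitors. Non-specific binding set with 1.25 μM AVP. Bound tracer collected on PEI-soaked GF/C filters and counted by scintillation.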

human V2 receptor [2] = molecular target: T1, human V2 receptor; experiment: V2 binding assay (3H-AVP displacement, HEK-293 membranes); parameters: expressed in transfected cells; host or cells: HEK-293 (membranes); details: for inhibition at 1 µM: read-out: V2@1.0, % Inh
Outline: as §4

Question: For “1-[(N1-Piperidinocarbothioyl-(1-L-carboxymethyl-2-phenylamino)-4-yl]-3-(3-aminopropyl)-1,3-dihydrobenzimidazol-2-one Hydrochloride [Compound 57]”, which IC50 (human V1a receptor) is on record?
Answer: 0.482 µM

Question: What about the “Cell-Based Functional activity V2 % Inh. @ 30” value (human V2 receptor [1]; 30 μM compound) of the same compound?
Answer: 0% @ 30

Question: And the “V1b % Inh @10” value (human V1b receptor; 10 μM compound)?
Answer: 25%@10

Question: And the “V2@1.0, % Inh” value (human V2 receptor [2]; 1.0 μM compound)?
Answer: 0%

Question: For `CCN(CC)CCn1c(=O)n(C2CCN(C(=S)NC(c3ccccc3)c3ccccc3)CC2)c2ccccc21` [Compound 35, 1-(N1-Piperidinocarbothioyldiphenylmethylamino-4-yl)-3-(2-diethyaminoethyl)-1,3-dihydrobenzimidazol-2-one], which IC50 (human V1a receptor) is on record?
Answer: 0.458 µM

Question: What about the IC50 (human V2 receptor [1]) of the same compound?
Answer: 0.623 µM

Question: What about the inhibition at 1 µM (human V1b receptor; 1.0 μM compound, read-out: V1b@1.0, % Inh) of the same compound?
Answer: 47%

Question: What about the inhibition at 1 µM (human V2 receptor [2]; 1.0 μM compound) of the same compound?
Answer: 44%

Question: Which results are given for `CCN(CC)CCn1c(=O)n(C2CCN(C(=S)NC(Cc3ccccc3)C(=O)OC)CC2)c2ccccc21` [Compound 42, 1-(N1-Piperidinocarbothioyl-(2-phenyl-1-L-carboxymethyl)amino-4-yl)-3-(2-diethyaminoethyl)-1,3-dihydrobenzimidazol-2-one]?
Answer: IC50 (human V1a receptor): 0.81 µM; inhibition at 10 µM (human V2 receptor [1]; HEK293, 10 μM compound, read-out: Cell-Based Functional activity V2 % Inh. @ 10): 0%; inhibition at 10 µM (human V1b receptor; 10 μM compound): 37%; inhibition at 1 µM (human V2 receptor [2]; 1.0 μM compound): 0%

Question: Which IC50 (human V1a receptor) does the source give for `NCCCn1c(=O)n(C2CCN(C(=S)NC(c3ccccc3)c3ccccc3)CC2)c2ccccc21` [Compound 55, 1-[(N1-Piperidinocarbothioyldiphenylmethylamino)-4-yl]-3-(3-aminopropyl)-1,3-dihydrobenzimidazol-2-one Monohydrochloride] here?
Answer: 0.139 µM

Question: What about the IC50 (human V2 receptor [1]) of the same compound?
Answer: 22.8 µM

Question: What about the IC50 (human V1b receptor) of the same compound?
Answer: 5.1 µM

Question: What about the IC50 (human V2 receptor [2]) of the same compound?
Answer: 1.25 µM

Question: For `N=C(N)NCCCn1c(=O)n(C2CCN(C(=S)NC(c3ccccc3)c3ccccc3)CC2)c2ccccc21` [Compound 59, 1-[(N1-Piperidinocarbothioyldiphenylmethylamino)-4-yl]-3-(3-guanidinopropyl)-1,3-dihydrobenzimidazol-2-one], which IC50 (human V1a receptor) is on record?
Answer: 0.24 µM

Question: And the inhibition at 30 µM (human V2 receptor [1]; HEK293, 30 μM compound, read-out: Cell-Based Functional activity V2 % Inh. @ 30)?
Answer: 0%

Question: And the IC50 (human V1b receptor)?
Answer: 4.1 µM

Question: What about the inhibition at 10 µM (human V1b receptor; 10 μM compound) of the same compound?
Answer: 62%

Question: What about the inhibition at 1 µM (human V2 receptor [2]; 1.0 μM compound) of the same compound?
Answer: 18%
